{"source": "patent US7645802B2", "about": "(Biovail Laboratories International SRL., priority 2005, dated 2010)", "key": {"Rj: Wistar (Han) rats": {"system": "Rj: Wistar (Han) rats", "assay": "EEG trace monitoring and behavioural observations in conscious rats", "conditions": "rat, in vivo, ip", "protocol": "The effects of the two bupropion salt forms hydrochloride and hydrobromide on central nervous system activity after intraperitoneal administration were evaluated by means of EEG trace monitoring in conscious rats. The method which detects electroencephalographic activity in conscious rats follows that described by Dürmüller et al., (2000) Vigilance-Controlled Quantified EEG in Safety Pharmacology, Current Protocols in Pharmacology Unit 10.6. The study was conducted at Porsolt & Partners Pharmacology, Research Laboratory, Z. A. des Suhards—B.P. 9, 53940 Le Genest-Saint-Isle, France.\nSubstances: The formulation excipient used was physiological saline (Laboratoire Aguettant). […] All substances were stored in a dry, dark, controlled access area and maintained at a controlled ambient temperature of about 20±3° C. The vehicle solutions were stored at about +4° C. The substances were administered in a volume of 5 ml/kg body weight. The doses of bupropion hydrochloride are expressed in mg/kg of salt. […] The substances were dissolved in physiological saline and prepared freshly at each day of experimentation.\nTest systems: The rats used were male Rj: Wistar (Han) rats, weighing from about 280 g to 324 g at the time of implantation. They were supplied by Elevage Janvier, 53940 Le Genest-Saint-Isle, France. […] Upon delivery to the laboratory, the animals were housed in groups of 5 animals maximum, in macrolon cages (44×28×19 cm) containing wood litter (Litalabo—SPPS, 95100 Argenteuil, France). The animals had free access to food (Code 113—SAFE, 89290 Augy, France) and tap water. The animal house was maintained under artificial lighting (12 hrs) from 7:00 to 19:00 in a controlled ambient temperature of about 21±3° C. and relative humidity maintained at from about 30% to about 80%. […] Except during the test sessions, the animals had free access to food (Code 113) and tap water. The animals were identified by marking the connector fixed on the animal's head with an indelible pen. Rats were sacrificed at the end of the experiments by lethal injection of pentobarbital (>100 mg/kg i.p.). Animals were not submitted to necropsy. There is no reason to expect that contaminants were present in the feed, water or bedding at levels capable of interfering with the results of the tests. No checks were performed for this particular study.\nElectrode implantation procedure: Implantation surgery was carried out under aseptic conditions. Rats, anesthetized with sodium pentobarbital (60 mg/kg i.p., plus supplementary doses of from about 5 mg/kg to about 10 mg/kg to maintain anesthesia until surgery completion) were implanted with 2 surface EEG electrodes, comprised of miniature titanium screws, placed bilaterally over the frontal-parietal cortex and 2 depth electrodes, comprised of twisted platinium-iridium wires, placed stereotaxically into the hippocampus CA3 area (Paxinos and Watson coordinates interaural: AP+5.0 mm, L±2.5 mm, V+7.0 mm). An additional screw, placed over the right occipital cortex, served as ground electrode. The electrodes were connected to small plugs and the whole assembly was secured on the skull with dental acrylate.\nApparatus: For the EEG recording, the animals were placed in rectangular Plexiglas cubicles (30×10×25 cm) mounted on treadmills. Five recording units were run in parallel. A turning commutator was attached above the centre of each cubicle, about 30 cm above walking level. On one side, it was connected via an electrically shielded multicore cable to the animal and on the other side to the signal conditioning system (Coulbourn Model V75-01). The system filters were set for all channels to high pass 1 Hz and low pass 150 Hz, respectively. The amplification levels were kept at from 1000× to 10000×. The EEG signals were acquired and processed on a PC (DELL GX620-2800) installed with a 16 channel 200 kHz/12-bit AD acquisition card (NI PCI-6023E)."}, "[1]": {"assay": "Solubility and other physical properties, Bupropion HBr vs Bupropion HCl"}, "TGA of bupropion salts": {"assay": "TGA of bupropion salts", "format": "physicochemical", "conditions": "at 400° C.", "protocol": "2-5 mg of each salt was placed in an aluminium pan and covered with its lid. DSC was run for each sample at the rate of 10 degrees C./min (for HBr salt, different rates were used to investigate for polymorphs) from 30 degrees C. to 400 degrees C. TGA was also used for each of the HBr, HCl, maleate and tosylate salts.\nThe salts were analyzed by DSC (at 10° C./min from 30° C. up to 400° C.) and the pH (aq. 0.5%), and the moisture content by KF were also measured. The TGA was performed on the HCl, maleate, tosylate and HBr salts."}, "[2]": {"conditions": "HCl from Erregierre, HBr from Chemi, hydrochloride"}}, "note": "Structures can show the parent of a compound that is named as a salt.", "data": [{"smiles": "CC(NC(C)(C)C)C(=O)c1cccc(Cl)c1.Cl", "note": "(racemic) [bupropion hydrochloride, (±)-1-(3-chlorophenyl)-2-[(1,1-dimethylethyl)amino]-1-propanone hydrochloride]", "values": [{"measurement": "BEHAVIOR Facial clonus", "setting": "Rj: Wistar (Han) rats; 10 mg/kg", "value": "−"}, {"measurement": "BEHAVIOR Forelimb clonus", "setting": "Rj: Wistar (Han) rats; 10 mg/kg", "value": "−"}, {"measurement": "BEHAVIOR Head twitches", "setting": "Rj: Wistar (Han) rats; 10 mg/kg", "value": "−"}, {"measurement": "BEHAVIOR Hyperactivity Sterotypies", "setting": "Rj: Wistar (Han) rats; 10 mg/kg", "value": "−"}, {"measurement": "BEHAVIOR Rearing", "setting": "Rj: Wistar (Han) rats; 10 mg/kg", "value": "−"}, {"measurement": "BEHAVIOR Wholebody clonus", "setting": "Rj: Wistar (Han) rats; 10 mg/kg", "value": "−"}, {"measurement": "EEG ANALYSIS Burst cx", "setting": "Rj: Wistar (Han) rats; 10 mg/kg", "value": "−"}, {"measurement": "EEG ANALYSIS Burst hipp", "setting": "Rj: Wistar (Han) rats; 10 mg/kg", "value": "−"}, {"measurement": "EEG ANALYSIS Complex spike cx", "setting": "Rj: Wistar (Han) rats; 10 mg/kg", "value": "−"}, {"measurement": "EEG ANALYSIS Complex spike hipp", "setting": "Rj: Wistar (Han) rats; 10 mg/kg", "value": "−"}, {"measurement": "EEG ANALYSIS High amplitude fast frequency cx", "setting": "Rj: Wistar (Han) rats; 10 mg/kg", "value": "−"}, {"measurement": "EEG ANALYSIS High amplitude fast frequency hipp", "setting": "Rj: Wistar (Han) rats; 10 mg/kg", "value": "−"}, {"measurement": "EEG ANALYSIS High frequency burst activity hipp", "setting": "Rj: Wistar (Han) rats; 10 mg/kg", "value": "−"}, {"measurement": "EEG ANALYSIS Long seizure activity cx", "setting": "Rj: Wistar (Han) rats; 10 mg/kg", "value": "−"}, {"measurement": "EEG ANALYSIS Long seizure activity hipp", "setting": "Rj: Wistar (Han) rats; 10 mg/kg", "value": "−"}, {"measurement": "EEG ANALYSIS Post ictual activity cx", "setting": "Rj: Wistar (Han) rats; 10 mg/kg", "value": "−"}, {"measurement": "EEG ANALYSIS Post ictual activity hipp", "setting": "Rj: Wistar (Han) rats; 10 mg/kg", "value": "−"}, {"measurement": "EEG ANALYSIS Repetitive isolated spike cx", "setting": "Rj: Wistar (Han) rats; 10 mg/kg", "value": "−"}, {"measurement": "EEG ANALYSIS Repetitive isolated spike hipp", "setting": "Rj: Wistar (Han) rats; 10 mg/kg", "value": "−"}, {"measurement": "EEG ANALYSIS Sharp waves cx", "setting": "Rj: Wistar (Han) rats; 10 mg/kg", "value": "−"}, {"measurement": "EEG ANALYSIS Sharp waves hipp", "setting": "Rj: Wistar (Han) rats; 10 mg/kg", "value": "−"}, {"measurement": "EEG ANALYSIS Short seizure activity cx", "setting": "Rj: Wistar (Han) rats; 10 mg/kg", "value": "−"}, {"measurement": "EEG ANALYSIS Short seizure activity hipp", "setting": "Rj: Wistar (Han) rats; 10 mg/kg", "value": "−"}, {"measurement": "EEG ANALYSIS Spike-and-waves cx", "setting": "Rj: Wistar (Han) rats; 10 mg/kg", "value": "−"}, {"measurement": "EEG ANALYSIS Spike-and-waves hipp", "setting": "Rj: Wistar (Han) rats; 10 mg/kg", "value": "−"}, {"measurement": "BEHAVIOR Facial clonus", "setting": "Rj: Wistar (Han) rats; 30 mg/kg", "value": "−"}, {"measurement": "BEHAVIOR Forelimb clonus", "setting": "Rj: Wistar (Han) rats; 30 mg/kg", "value": "−"}, {"measurement": "BEHAVIOR Head twitches", "setting": "Rj: Wistar (Han) rats; 30 mg/kg", "value": "−"}, {"measurement": "BEHAVIOR Hyperactivity Sterotypies", "setting": "Rj: Wistar (Han) rats; 30 mg/kg", "value": "+"}, {"measurement": "BEHAVIOR Rearing", "setting": "Rj: Wistar (Han) rats; 30 mg/kg", "value": "−"}, {"measurement": "BEHAVIOR Wholebody clonus", "setting": "Rj: Wistar (Han) rats; 30 mg/kg", "value": "−"}, {"measurement": "EEG ANALYSIS Sharp waves cx", "setting": "Rj: Wistar (Han) rats; 30 mg/kg", "value": "−"}, {"measurement": "EEG ANALYSIS Sharp waves hipp", "setting": "Rj: Wistar (Han) rats; 30 mg/kg", "value": "−"}, {"measurement": "EEG ANALYSIS Spike-and-waves cx", "setting": "Rj: Wistar (Han) rats; 30 mg/kg", "value": "−"}, {"measurement": "EEG ANALYSIS Spike-and-waves hipp", "setting": "Rj: Wistar (Han) rats; 30 mg/kg", "value": "−"}, {"measurement": "BEHAVIOR Facial clonus", "setting": "Rj: Wistar (Han) rats; 60 mg/kg", "value": "−"}, {"measurement": "BEHAVIOR Forelimb clonus", "setting": "Rj: Wistar (Han) rats; 60 mg/kg", "value": "−"}, {"measurement": "BEHAVIOR Head twitches", "setting": "Rj: Wistar (Han) rats; 60 mg/kg", "value": "−"}, {"measurement": "BEHAVIOR Hyperactivity Sterotypies", "setting": "Rj: Wistar (Han) rats; 60 mg/kg", "value": "+"}, {"measurement": "BEHAVIOR Rearing", "setting": "Rj: Wistar (Han) rats; 60 mg/kg", "value": "−"}, {"measurement": "BEHAVIOR Wholebody clonus", "setting": "Rj: Wistar (Han) rats; 60 mg/kg", "value": "−"}, {"measurement": "EEG ANALYSIS Sharp waves cx", "setting": "Rj: Wistar (Han) rats; 60 mg/kg", "value": "−"}, {"measurement": "EEG ANALYSIS Sharp waves hipp", "setting": "Rj: Wistar (Han) rats; 60 mg/kg", "value": "−"}, {"measurement": "EEG ANALYSIS Spike-and-waves cx", "setting": "Rj: Wistar (Han) rats; 60 mg/kg", "value": "−"}, {"measurement": "EEG ANALYSIS Spike-and-waves hipp", "setting": "Rj: Wistar (Han) rats; 60 mg/kg", "value": "−"}, {"measurement": "BEHAVIOR Facial clonus", "setting": "Rj: Wistar (Han) rats; 100 mg/kg", "value": "+"}, {"measurement": "EEG ANALYSIS Spike-and-waves cx", "setting": "Rj: Wistar (Han) rats; 100 mg/kg", "value": "−"}, {"measurement": "EEG ANALYSIS Spike-and-waves hipp", "setting": "Rj: Wistar (Han) rats; 100 mg/kg", "value": "−"}]}, {"smiles": "CC(NC(C)(C)C)C(=O)c1cccc(Cl)c1", "note": "(stereo not drawn) [Bupropion HCl, bupropion hydrochloride]", "values": [{"measurement": "solubility", "setting": "[1]; EtOH", "value": 80, "unit": "mg/mL"}, {"measurement": "pH (aq. 0.5%)", "setting": "[1]; HCl from Erregierre, HBr from Chemi", "value": 5.90}, {"measurement": "PS (Malvern) 10%", "setting": "[1]; [2]", "value": 10, "unit": "% 32 μm"}, {"measurement": "PS (Malvern) 50%", "setting": "[1]; [2]", "value": 50, "unit": "% 102 μm"}, {"measurement": "PS (Malvern) 90%", "setting": "[1]; [2]", "value": 90, "unit": "% 276 μm"}, {"measurement": "moisture content KF", "setting": "[1]; [2]", "value": 0.01, "unit": "%"}, {"measurement": "solubility", "setting": "[1]; IPA", "value": 10, "unit": "mg/mL"}, {"measurement": "solubility", "setting": "[1]; Water", "value": 270, "unit": "mg/mL"}, {"measurement": "residue (TGA)", "setting": "TGA of bupropion salts", "value": "minimal residues"}]}]}
